In this assay the target is T1, human F508del CFTR (Homo sapiens, UniProt P13569, DEL508-508).
T1 construct: expressed in transfected cells; host or cells: Fisher Rat Thyroid (FRT) cells
Nature of the assay: CFTR-YFP High Throughput Assay. It is filed as cell-based. To be noted: FRT cells expressing human F508del CFTR and YFP; for Emax: EMax normalized to the positive control, read-out: % Efficacy. The protocol: Assays for Detecting and Measuring the Effect of Compounds on F508del-CFTR Channels CFTR-YFP High Throughput Assay-CFTR Corrector Protocol:
This protocol is designed to selectively screen small molecule compounds for F508del CFTR corrector activities in the HTS YFP (yellow fluorescent protein) flux assay. In this protocol, the cells are incubated with testing compounds for 24 hours, washed with PBS, stimulated with forskolin and a standard potentiator, and fluorescence in each plate well is measured kinetically read on a 384-well HTS plate reader, such as the Hamamatsu FDSS-6000.
YFP fluorescence intensity values are acquired at high speed before and after iodide buffer is injected to the assay cells. Iodide enters the cells via active CFTR channels in the plasma membrane, and quenches the YFP fluorescence. The rate of fluorescence quenching is proportionate to the total CFTR activity in the cell membrane. F508del CFTR correctors increase the number of CFTR molecules in the testing cell plasma membrane, and thereby accelerate YFP quenching.
This method was initially developed for bench top plate readers (Galietta et al., 2001), and was adapted to the HTS format (Sui et al. Assay Drug Dev. Technol. 2010).
Fisher Rat Thyroid (FRT) cells stably expressing both human F508del CFTR and a halide-sensitive yellow fluorescent protein (YFP-H148Q/I152L 25,22) (Galietta et al. Am. J. Physiol Cell Physiol 281(5), C1734, 2001) were cultured on plastic surface in Coon's modified Ham's F12 medium supplemented with FBS 10%, L-glutamine 2 mM, penicillin 100 U/ml, and streptomycin 100 µg/ml. G418 (0.75-1.0 mg/ml) and zeocin (3.2 ug/ml) were used for selection of FRT cells expressing F508del CFTR and YFP. For primary screening, FRT cells were plated into 384-well black wall, transparent bottom microtiter plates (Costar; Corning Inc.) at a cell density of 20,000-40,000 per well. Test compound was applied to the cells at varying concentrations ranging from 2 nM-40 μM in either a 2-fold or 3-fold dilution series. Cells were incubated in a cell culture incubator at 37° C. with 5% CO2 for 24-26 h. Assay plates were washed with DPBS media (Thermo, cat# SH30028.02) to remove unbound cells and compound. Stimulation media (25 μL) containing 20 μM Forskolin & 30 μM P3 [6-(Ethyl-phenyl-sulfonyl)-4-oxo-1,4-dihydro-quinoline-3-carboxylic acid 2-methoxy-benzylamide] in Hams F-12 coon's modified media was added to the plate wells and incubated at room temperature for 60-120 min. […] (10 mM HEPES, 1 mM MgCl2, 3 mM KCl, 1 mM CaCl2, 150 mM NaI) was then added and fluorescence quench curves (Excitation 500 nm/Emission 540 nm; exposure 136 ms) were immediately recorded on an FDSS-6000 plate reader (Hamamatsu). Quench rates were derived from least squares fitting of the data as described by Sui et al (2010).
CFTR-YFP High Throughput Assay-CFTR Potentiator Protocol:
This protocol is designed to selectively screen small molecule compounds for F508del CFTR potentiator activities in the HTS YFP flux assay. Such compounds act acutely to stimulate CFTR already expressed on the membrane surface. In this protocol, the cells are incubated at 27° C. for 24 hours to homogeneously boost F508del CFTR expression in the cell membrane (low temperature correction), washed with PBS, treated with test compound, and CFTR activity is stimulated with forskolin for 1-2 hr. Measurement of ion flux is initiated by addition of iodide-containing buffer, and YFP quenching is kinetically recorded using a 384-well HTS plate reader, such as the Hamamatsu FDSS-6000.
YFP fluorescence intensity values are acquired at high speed over a 1 min time course before and after iodide buffer is injected to the assay cells. Iodide enters the cells via active CFTR channels in the plasma membrane, and quenches the YFP fluorescence. The rate of fluorescence quenching is proportionate to total CFTR activity in the cell membrane. […]

T1 sequence (P13569 with tags, fused parts or gaps DEL508-508): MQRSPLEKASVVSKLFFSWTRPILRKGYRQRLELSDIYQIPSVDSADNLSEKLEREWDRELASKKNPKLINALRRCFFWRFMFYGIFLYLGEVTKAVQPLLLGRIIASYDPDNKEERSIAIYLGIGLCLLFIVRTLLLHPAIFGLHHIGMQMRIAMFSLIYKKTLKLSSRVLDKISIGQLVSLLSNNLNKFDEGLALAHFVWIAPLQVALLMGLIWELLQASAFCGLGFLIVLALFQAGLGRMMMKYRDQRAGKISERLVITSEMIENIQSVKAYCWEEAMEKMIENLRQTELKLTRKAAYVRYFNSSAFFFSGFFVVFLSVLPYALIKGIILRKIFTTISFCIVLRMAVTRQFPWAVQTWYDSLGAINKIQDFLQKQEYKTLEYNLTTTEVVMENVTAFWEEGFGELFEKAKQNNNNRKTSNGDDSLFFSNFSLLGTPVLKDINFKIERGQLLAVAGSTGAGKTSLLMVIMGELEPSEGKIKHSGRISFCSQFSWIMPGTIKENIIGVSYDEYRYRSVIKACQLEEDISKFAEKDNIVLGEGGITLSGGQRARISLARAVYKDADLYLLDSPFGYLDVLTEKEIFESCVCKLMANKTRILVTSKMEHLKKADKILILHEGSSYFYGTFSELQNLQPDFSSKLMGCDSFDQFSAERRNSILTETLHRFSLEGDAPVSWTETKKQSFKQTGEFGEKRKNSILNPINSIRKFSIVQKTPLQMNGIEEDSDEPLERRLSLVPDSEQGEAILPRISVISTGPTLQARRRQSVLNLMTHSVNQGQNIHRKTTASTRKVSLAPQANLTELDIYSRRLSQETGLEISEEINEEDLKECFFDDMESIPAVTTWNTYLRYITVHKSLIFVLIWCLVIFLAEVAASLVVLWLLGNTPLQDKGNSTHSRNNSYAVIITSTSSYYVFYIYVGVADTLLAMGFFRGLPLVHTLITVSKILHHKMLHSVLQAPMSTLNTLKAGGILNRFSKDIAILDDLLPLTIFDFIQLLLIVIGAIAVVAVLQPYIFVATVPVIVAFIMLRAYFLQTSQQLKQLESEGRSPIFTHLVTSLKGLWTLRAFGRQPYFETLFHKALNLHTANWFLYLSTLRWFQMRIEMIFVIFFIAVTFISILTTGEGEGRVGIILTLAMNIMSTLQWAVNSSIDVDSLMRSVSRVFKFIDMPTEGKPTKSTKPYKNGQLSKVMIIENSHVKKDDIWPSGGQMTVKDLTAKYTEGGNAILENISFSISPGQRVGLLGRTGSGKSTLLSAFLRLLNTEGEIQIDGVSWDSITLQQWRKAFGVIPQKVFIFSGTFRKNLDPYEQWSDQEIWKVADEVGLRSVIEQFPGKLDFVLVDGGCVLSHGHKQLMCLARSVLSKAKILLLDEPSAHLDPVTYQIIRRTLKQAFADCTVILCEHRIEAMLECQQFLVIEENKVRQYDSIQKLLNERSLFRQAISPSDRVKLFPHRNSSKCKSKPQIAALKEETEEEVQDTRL

Take `CCN(C(=O)c1nn(-c2ccc(C)cc2)c(=O)c2c1c1ccccc1n2CC(=O)O)c1ccccc1` [Example 224, 2-(1-(ethyl(phenyl)carbamoyl)-4-oxo-3-(p-tolyl)-3H-pyridazino[4,5-b]indol-5(4H)-yl)acetic acid]: the Emax lay in the range of 30 to 80%.

Take `CC(C)N(C(=O)c1nn(Cc2ccccc2)c(=O)c2c1c1ccccc1n2C)c1ccccc1` [Example 212, 3-benzyl-N-isopropyl-5-methyl-4-oxo-N-phenyl-4,5-dihydro-3H-pyridazino[4,5-b]indole-1-carboxamide]: the Emax was in the range of 30 to 80% and the EC50 was below 10 µM.

In the case of `CCN(C(=O)c1nn(-c2ccc(C)cc2)c(=O)c2c1c1ccccc1n2C)c1ccccn1` [Example 156, N-ethyl-5-methyl-4-oxo-N-(pyridin-2-yl)-3-(p-tolyl)-4,5-dihydro-3H-pyridazino[4,5-b]indole-1-carboxamide], the Emax fell in the range of 30 to 80%. `CCN(C(=O)Cn1nc(Cc2cccnc2)c2cccc(OC3CCCCC3)c2c1=O)c1ccc2c(c1)OC(F)(F)O2` [Example 59, 2-(8-(cyclohexyloxy)-1-oxo-4-(pyridin-3-ylmethyl)phthalazin-2(1H)-yl)-N-(2,2-difluorobenzo[d][1,3]dioxol-5-yl)-N-ethylacetamide]: the Emax lay within 30 to 80% and the EC50 was in the range of 10 to 20 µM.

Turning to `CCc1ccc(N(CC)C(=O)Cn2nc(Cc3cccnc3)c3cnccc3c2=O)cc1` [Example 42, N-ethyl-N-(4-ethylphenyl)-2-(1-oxo-4-(pyridin-3-ylmethyl)pyrido[3,4-d]pyridazin-2(1H)-yl)acetamide], the Emax lay in the range of 10 to 30%. With `CCN(C(=O)Cn1nc(C(=O)Nc2ccccn2)c2ccccc2c1=O)c1ccc2c(c1)OC(F)(F)O2` [Example 126, 3-(2-((2,2-difluorobenzo[d][1,3]dioxol-5-yl)(ethyl)amino)-2-oxoethyl)-4-oxo-N-(pyridin-2-yl)-3,4-dihydrophthalazine-1-carboxamide], the Emax was 30 to 80% and the EC50 is below 10 µM.

Turning to `CCN(C(=O)c1nn(C2CCN(C)CC2)c(=O)c2c1c1ccccc1n2C)c1ccccc1` [Example 199, N-ethyl-5-methyl-3-(1-methylpiperidin-4-yl)-4-oxo-N-phenyl-4,5-dihydro-3H-pyridazino[4,5-b]indole-1-carboxamide], the Emax lay in the range of 10 to 30% and the EC50 is above 20 µM. On the same counts, the results for `CCN(C(=O)c1nn(-c2ccc(OC)cc2)c(=O)c2c1c1ccccc1n2C)c1ccccc1` [Example 179, N-ethyl-3-(4-methoxyphenyl)-5-methyl-4-oxo-N-phenyl-4,5-dihydro-3H-pyridazino[4,5-b]indole-1-carboxamide] are 30 to 80% and above 20 µM. Turning to `CCN(C(=O)c1nn(-c2ccc(C)cc2)c(=O)c2c1c1ccccc1n2C)c1cccnc1` [Example 157, N-ethyl-5-methyl-4-oxo-N-(pyridin-3-yl)-3-(p-tolyl)-4,5-dihydro-3H-pyridazino[4,5-b]indole-1-carboxamide], the Emax fell in the range of 30 to 80%. The same measure, in the same setting: under `CCN(C(=O)Cn1nc(Cc2cccnc2)c2cc(Cl)ccc2c1=O)c1ccc2c(c1)OC(F)(F)O2` [Example 53, 2-(6-chloro-1-oxo-4-(pyridin-3-ylmethyl)phthalazin-2(1H)-yl)-N-(2,2-difluorobenzo[d][1,3]dioxol-5-yl)-N-ethylacetamide] stands 30 to 80%. `Cc1ccc(-n2nc(-c3ccccc3)c3c4ccccc4n(C)c3c2=O)cc1` [Example 236, 5-methyl-1-phenyl-3-(p-tolyl)-3H-pyridazino[4,5-b]indol-4(5H)-one]: the Emax was in the range of 10 to 30% and the half-maximal effective concentration (EC50) is above 20 µM. `Cc1ccc(-n2nc(C(=O)N(c3ccccc3)C(C)C)c3c4ccccc4n(C)c3c2=O)cc1` [Example 152, N-isopropyl-5-methyl-4-oxo-N-phenyl-3-(p-tolyl)-4,5-dihydro-3H-pyridazino[4,5-b]indole-1-carboxamide]: the Emax is 30 to 80%.

On to `CCc1ccc(N(CC)C(=O)Cn2nc(C(=O)Nc3cc(Cl)ccc3C(=O)OC)c3ccccc3c2=O)cc1` [Example 130, methyl 4-chloro-2-(3-(2-(ethyl(4-ethylphenyl)amino)-2-oxoethyl)-4-oxo-3,4-dihydrophthalazine-1-carboxamido)benzoate], for which the Emax fell in the range of 30 to 80%. For the compound `Cc1nc2ccc(N(C(=O)Cn3nc(-c4cccc(F)c4)c4ccc(O)cc4c3=O)C3CC3)cc2o1` [Example 99, N-cyclopropyl-2-(4-(3-fluorophenyl)-7-hydroxy-1-oxophthalazin-2(1H)-yl)-N-(2-methylbenzo[d]oxazol-6-yl)acetamide], the Emax is above 80%.

Take `CCN(CC)C(=O)c1nn(CC(O)COCc2ccccc2)c(=O)c2c1c1c(C)cccc1n2C` (stereo not shown) [Example 232, 3-(3-(benzyloxy)-2-hydroxypropyl)-N,N-diethyl-5,9-dimethyl-4-oxo-4,5-dihydro-3H-pyridazino[4,5-b]indole-1-carboxamide]: the Emax lay in the range of 30 to 80% and the EC50 is below 10 µM. In the case of `CCN(C(=O)c1nn(-c2ccc(C)cc2)c(=O)c2c1c1sc(C)cc1n2C)c1ccccc1F` [Example 247, N-ethyl-N-(2-fluorophenyl)-2,4-dimethyl-5-oxo-6-(p-tolyl)-5,6-dihydro-4H-thieno[2′,3′:4,5]pyrrolo[2,3-d]pyridazine-8-carboxamide], the Emax lay in the range of 30 to 80% and the EC50 was above 20 µM. For `CCN(C(=O)c1nn(C2CCCCC2)c(=O)c2c1c1ccccc1n2C)c1cccc(Cl)c1` [Example 204, N-(3-chlorophenyl)-3-cyclohexyl-N-ethyl-5-methyl-4-oxo-4,5-dihydro-3H-pyridazino[4,5-b]indole-1-carboxamide], the Emax lay within 30 to 80%. Take `CCN(C(=O)c1nn(-c2ccccc2)c(=O)c2c1c1ccccc1n2C)c1ccncn1` [Example 151, N-ethyl-5-methyl-4-oxo-3-phenyl-N-(pyrimidin-4-yl)-4,5-dihydro-3H-pyridazino[4,5-b]indole-1-carboxamide]: the Emax was 30 to 80%. The same measure, in the same setting: under `CCN(C(=O)c1nn(-c2ccncc2)c(=O)c2c1c1ccccc1n2C)c1ccccc1` [Example 169, N-ethyl-5-methyl-4-oxo-N-phenyl-3-(pyridin-4-yl)-4,5-dihydro-3H-pyridazino[4,5-b]indole-1-carboxamide] stands 30 to 80%; under `CCN(C(=O)c1nn(-c2ccc(Cl)cc2)c(=O)c2c1c1ccccc1n2C)c1ccccc1` [Example 178, 3-(4-chlorophenyl)-N-ethyl-5-methyl-4-oxo-N-phenyl-4,5-dihydro-3H-pyridazino[4,5-b]indole-1-carboxamide], 30 to 80%. Consider `Cn1c2ccccc2c2c(-c3ccccc3)nn(-c3ccccc3F)c(=O)c21` [Example 237, 3-(2-fluorophenyl)-5-methyl-1-phenyl-3H-pyridazino[4,5-b]indol-4(5H)-one], for which the Emax lay within 10 to 30% and the EC50 was above 20 µM. Consider `CCN(C(=O)c1nn(C(C)C)c(=O)c2c1c1sc(C)cc1n2C)c1ccccc1` [Example 246, N-ethyl-6-isopropyl-2,4-dimethyl-5-oxo-N-phenyl-5,6-dihydro-4H-thieno[2′,3′:4,5]pyrrolo[2,3-d]pyridazine-8-carboxamide], for which the Emax was in the range of 30 to 80% and the EC50 is above 20 µM. The corresponding values for `CCN(C(=O)c1nn(CC2CCCO2)c(=O)c2c1c1ccccc1n2C)c1ccccc1` (stereo not shown) [Example 216, N-ethyl-5-methyl-4-oxo-N-phenyl-3-((THF-2-yl)methyl)-4,5-dihydro-3H-pyridazino[4,5-b]indole-1-carboxamide] are 30 to 80% and below 10 µM.
